Results published in patent US5358951A, “Angiotensin II receptor blocking 2, 3, 6 substituted quinazolinones” (American Cyanamid Company, priority 1993, dated 1994).

System: vasopressor response of angiotensin II
Experiment: AII Challenge: antagonism of angiotensin II vasopressor response
Format: in vivo
Details: for inhibition in vivo at 3 mg/kg / inhibition in vivo at 5 mg/kg: Rattus norvegicus
Procedure, shortened: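 Percent antagonism is based on the systolic blood pressure rise (mmHg) to i.v. angiotensin II at 0.05 and 0.1 ug/kg. Each rat's own predose response was taken as 100%. Challenges were repeated from 30 to 300 min after i.v., i.p. or oral compound in cannulated conscious male SHR, 16-20 weeks old.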

[1] = 1 mg/kg P.O., AII 0.05 mcg/kg IV, 60 min post dose
[2] = 1 mg/kg P.O., AII 0.05 mcg/kg IV, 90 min post dose
[3] = 1 mg/kg P.O., AII 0.05 mcg/kg IV, 120 min post dose
[4] = 1 mg/kg P.O., AII 0.05 mcg/kg IV, 180 min post dose
[5] = 1 mg/kg P.O., AII 0.05 mcg/kg IV, 240 min post dose
[6] = 1 mg/kg P.O., AII 0.1 mcg/kg IV, 60 min post dose
[7] = 1 mg/kg P.O., AII 0.1 mcg/kg IV, 90 min post dose
[8] = 1 mg/kg P.O., AII 0.1 mcg/kg IV, 120 min post dose
[9] = 1 mg/kg P.O., AII 0.1 mcg/kg IV, 180 min post dose
[10] = 1 mg/kg P.O., AII 0.1 mcg/kg IV, 240 min post dose
[11] = 5 mg/kg P.O., AII 0.05 mcg/kg IV, 60 min post dose
[12] = 5 mg/kg P.O., AII 0.1 mcg/kg IV, 60 min post dose

## CCCCc1nc2ccc([C@@]3(C)C[C@@H]4CCCN4O3)cc2c(=O)n1Cc1ccc(-c2ccccc2-c2nnn[nH]2)cc1 (relative stereo) [Example 58, Cis-(+/-)-2-Butyl-6-(hexahydro-2-methylpyrrolo[1,2-1,2-b]isoxazol-2-yl) -3-[[2'-(1H-tetrazol-5-yl) [1,1'-biphenyl]-4-yl]methyl]-4(3H)-quinazolinone]
[1]
  % Inhibition: 62%
  Response Average Change: 16 mmHg
[2]
  % Inhibition: 68%
  Response Average Change: 13.5 mmHg
[3]
  % Inhibition: 67%
  Response Average Change: 14 mmHg
[4]
  % Inhibition: 82%
  Response Average Change: 7.5 mmHg
[5]
  % Inhibition: 82%
  Response Average Change: 7.5 mmHg
[6]
  % Inhibition: 37%
  Response Average Change: 30 mmHg
[7]
  % Inhibition: 44%
  Response Average Change: 26.5 mmHg
[8]
  % Inhibition: 53%
  Response Average Change: 22.5 mmHg
[9]
  % Inhibition: 56%
  Response Average Change: 21 mmHg
[10]
  % Inhibition: 68%
  Response Average Change: 15 mmHg
3 mg/kg I.V., AII 0.05 mcg/kg IV, 30 min post dose
  Response Average Change: 0 mmHg
3 mg/kg I.V., AII 0.05 mcg/kg IV, 60 min post dose
  Response Average Change: 5 mmHg
3 mg/kg I.V., AII 0.05 mcg/kg IV, 90 min post dose
  Response Average Change: 2.5 mmHg
3 mg/kg I.V., AII 0.05 mcg/kg IV, 120 min post dose
  Response Average Change: 5 mmHg
3 mg/kg I.V., AII 0.05 mcg/kg IV, 180 min post dose
  Response Average Change: 6.5 mmHg
3 mg/kg I.V., AII 0.05 mcg/kg IV, 240 min post dose
  Response Average Change: 7.5 mmHg
3 mg/kg I.V., AII 0.1 mcg/kg IV, 30 min post dose
  Response Average Change: 10 mmHg
3 mg/kg I.V., AII 0.1 mcg/kg IV, 60 min post dose
  Response Average Change: 4 mmHg
3 mg/kg I.V., AII 0.1 mcg/kg IV, 90 min post dose
  Response Average Change: 2.5 mmHg
3 mg/kg I.V., AII 0.1 mcg/kg IV, 120 min post dose
  Response Average Change: 10 mmHg
3 mg/kg I.V., AII 0.1 mcg/kg IV, 180 min post dose
  Response Average Change: 6.5 mmHg
3 mg/kg I.V., AII 0.1 mcg/kg IV, 240 min post dose
  Response Average Change: 4 mmHg
[11]
  % Inhibition: 94%
  Response Average Change: 2.5 mmHg
5 mg/kg P.O., AII 0.05 mcg/kg IV, 120 min post dose
  Response Average Change: 5 mmHg
5 mg/kg P.O., AII 0.05 mcg/kg IV, 300 min post dose
  Response Average Change: 1 mmHg
[12]
  % Inhibition: 100%
  Response Average Change: 0 mmHg
iv, 0.5 h, 3 mg/kg I.V., AII 0.05 mcg/kg IV, 30 min post dose
  inhibition in vivo at 3 mg/kg: 100%
iv, 0.5 h, 3 mg/kg I.V., AII 0.1 mcg/kg IV, 30 min post dose
  inhibition in vivo at 3 mg/kg: 78%
iv, 1 h, 3 mg/kg I.V., AII 0.1 mcg/kg IV, 60 min post dose
  inhibition in vivo at 3 mg/kg: 91%
iv, 2 h, 3 mg/kg I.V., AII 0.1 mcg/kg IV, 120 min post dose
  inhibition in vivo at 3 mg/kg: 78%
iv, 3 h, 3 mg/kg I.V., AII 0.05 mcg/kg IV, 180 min post dose
  inhibition in vivo at 3 mg/kg: 83%
iv, 3 h, 3 mg/kg I.V., AII 0.1 mcg/kg IV, 180 min post dose
  inhibition in vivo at 3 mg/kg: 86%
iv, 4 h, 3 mg/kg I.V., AII 0.05 mcg/kg IV, 240 min post dose
  inhibition in vivo at 3 mg/kg: 81%
iv, 4 h, 3 mg/kg I.V., AII 0.1 mcg/kg IV, 240 min post dose
  inhibition in vivo at 3 mg/kg: 91%
iv, […], 3 mg/kg I.V., AII 0.05 mcg/kg IV, 90 min post dose
  inhibition in vivo at 3 mg/kg: 94%
iv, […], 3 mg/kg I.V., AII 0.1 mcg/kg IV, 90 min post dose
  inhibition in vivo at 3 mg/kg: 94%
po, 0.5 h, 3 mg/kg P.O., AII 0.05 mcg/kg IV, 30 min post dose
  inhibition in vivo at 3 mg/kg: 75%
po, 0.5 h, 5 mg/kg P.O., AII 0.05 mcg/kg IV, 30 min post dose
  inhibition in vivo at 5 mg/kg: 90%
po, 1 h, 3 mg/kg P.O., AII 0.05 mcg/kg IV, 60 min post dose
  inhibition in vivo at 3 mg/kg: 92%
po, 1 h, 3 mg/kg P.O., AII 0.1 mcg/kg IV, 60 min post dose
  inhibition in vivo at 3 mg/kg: 67%
po, 1 h, 5 mg/kg P.O., AII 0.05 mcg/kg IV, 60 min post dose
  inhibition in vivo at 5 mg/kg: 94%
po, 1 h, 5 mg/kg P.O., AII 0.1 mcg/kg IV, 60 min post dose
  inhibition in vivo at 5 mg/kg: 100%
po, 2 h, 3 mg/kg P.O., AII 0.05 mcg/kg IV, 120 min post dose
  inhibition in vivo at 3 mg/kg: 67%
po, 2 h, 3 mg/kg P.O., AII 0.1 mcg/kg IV, 120 min post dose
  inhibition in vivo at 3 mg/kg: 91%
po, 2 h, 5 mg/kg P.O., AII 0.05 mcg/kg IV, 120 min post dose
  inhibition in vivo at 5 mg/kg: 88%
po, 3 h, 3 mg/kg P.O., AII 0.05 mcg/kg IV, 180 min post dose
  inhibition in vivo at 3 mg/kg: 75%
po, 3 h, 3 mg/kg P.O., AII 0.1 mcg/kg IV, 180 min post dose
  inhibition in vivo at 3 mg/kg: 74%
po, 3 h, 5 mg/kg P.O., AII 0.05 mcg/kg IV, 180 min post dose
  inhibition in vivo at 5 mg/kg: 75%
po, 3 h, 5 mg/kg P.O., AII 0.1 mcg/kg IV, 180 min post dose
  inhibition in vivo at 5 mg/kg: 89%
po, 4 h, 5 mg/kg P.O., AII 0.05 mcg/kg IV, 240 min post dose
  inhibition in vivo at 5 mg/kg: 93%
po, 5 h, 3 mg/kg P.O., AII 0.05 mcg/kg IV, 300 min post dose
  inhibition in vivo at 3 mg/kg: 57%
po, 5 h, 5 mg/kg P.O., AII 0.05 mcg/kg IV, 300 min post dose
  inhibition in vivo at 5 mg/kg: 98%
po, 5 h, 5 mg/kg P.O., AII 0.1 mcg/kg IV, 300 min post dose
  inhibition in vivo at 5 mg/kg: 84%
po, […], 3 mg/kg P.O., AII 0.05 mcg/kg IV, 90 min post dose
  inhibition in vivo at 3 mg/kg: 75%
po, […], 5 mg/kg P.O., AII 0.05 mcg/kg IV, 90 min post dose
  inhibition in vivo at 5 mg/kg: 88%
po, […], 5 mg/kg P.O., AII 0.1 mcg/kg IV, 90 min post dose
  inhibition in vivo at 5 mg/kg: 84%
